Experimental data: patent US7163923B2, “Peptide deformylase activated prodrugs” (Celmed Oncology (USA), Inc., priority 2001, dated 2007)
≈ marks a conversion by molar mass, not a printed value. Where two headings read alike, the source gives them in different places.

Columns and labels:
Format in all cases: cell-based
E. aerogenes = assay: MIC susceptibility testing (modified NCCLS, 384-well); settings: Klebsiella aerogenes
Experimental: (§1) The NCCLS (National Committee for Clinical Laboratory Standards), method to determine MIC's of antimicrobial compounds is modified for high-throughput screening. All stocks of tested compounds are prepared in either water or in DMSO depending on solubility. At the highest concentration, DMSO content should not exceed 0.5%. Briefly, twenty 2-fold serial dilutions of test compounds from the highest concentration are made in a 384-well microtiter plate. […] Bacterial growth is determined by the increase of optical density at 600 nm using a microplate reader (Tecan SpectraFluor Plus).

E. cloacae = assay: as above; settings: Enterobacter cloacae
Experimental: as §1

H. influenzae = assay: as above; settings: Haemophilus influenzae
Experimental: as §1

K. pneumoniae = assay: as above; settings: Klebsiella pneumoniae
Experimental: as §1

M. catarrhalis = assay: as above
Experimental: as §1

P. aeruginosa = assay: as above; settings: Pseudomonas aeruginosa
Experimental: as §1

S. epidermidis = assay: as above; settings: Staphylococcus epidermidis
Experimental: as §1

E. coli = assay: as above
Experimental: The NCCLS (National Committee for Clinical Laboratory Standards), method to determine MIC's of antimicrobial compounds is modified for high-throughput screening. All stocks of tested compounds are prepared in either water or in DMSO depending on solubility. At the highest concentration, DMSO content should not exceed 0.5%. Briefly, twenty 2-fold serial dilutions of test compounds from the highest concentration are made in a 384-well microtiter plate. Each well is inoculated with testing bacteria in broth to a final concentration of approximately 1–1.5×10^6 cells/ml. Bacterial growth is determined by the increase of optical density at 600 nm using a microplate reader (Tecan SpectraFluor Plus). The MIC is defined as the lowest concentration at which bacterial growth (equivalent to visible growth) was inhibited after 16 to 18 hours of incubation at the appropriate temperature required for the bacteria growth.
E. coli/TEM—E. coli expressing TEM-1 beta-lactamase; MRSA—Methicillin Resistant S. Aureus; MSSA—Methicillin Sensitive S. Aureus

[1] = Toxicity to mammalian cells; settings: after 16 hours of exposure
Experimental: Mammalian cells were treated with NB2046 as described above.

SMILES: CSCCC(NC=O)C(=O)NC(CC(C)C)C(=O)Oc1cc(Cl)ccc1Oc1ccc(Cl)cc1Cl (centres unmarked) [NB2046, 2-(2-formylamino-4-methylsulfanyl-butyrylamino)-4-methyl-pentanoic acid 5-chloro-2-(2,4-dichloro-phenoxy)-phenyl ester]
- MIC (E. aerogenes; ATCC29009, E. aerogenes ATCC 29009, Exp. #2, Table 3): ≤ 0.125 µg/mL
- MIC (E. aerogenes; ATCC29751, E. aerogenes ATCC 29751, Exp. #1, Table 3): 2 µg/mL (≈ 3.56 µM)
- MIC (E. aerogenes; ATCC29751, E. aerogenes ATCC 29751, Exp. #2, Table 3): 1 µg/mL (≈ 1.78 µM)
- MIC (E. aerogenes; ATCC35028, E. aerogenes ATCC 35028, Exp. #1, Table 3): 4 µg/mL (≈ 7.12 µM)
- MIC (E. aerogenes; ATCC35028, E. aerogenes ATCC 35028, Exp. #1, Table 4): 32 µg/mL (≈ 56.9 µM)
- MIC (E. aerogenes; ATCC35028, E. aerogenes ATCC 35028, Exp. #2, Table 3): 2 µg/mL (≈ 3.56 µM)
- MIC (E. aerogenes; ATCC35028, E. aerogenes ATCC 35028, Exp. #2, Table 4): 16 µg/mL (≈ 28.5 µM)
- MIC (E. cloacae; ATCC23355, E. cloacae ATCC 23355, Exp. #1, Table 3): 0.5 µg/mL (≈ 0.89 µM)
- MIC (E. cloacae; ATCC23355, E. cloacae ATCC 23355, Exp. #1, Table 4): 16 µg/mL (≈ 28.5 µM)
- MIC (E. cloacae; ATCC23355, E. cloacae ATCC 23355, Exp. #2, Table 3): 0.5 µg/mL (≈ 0.89 µM)
- MIC (E. cloacae; ATCC23355, E. cloacae ATCC 23355, Exp. #2, Table 4): 1 µg/mL (≈ 1.78 µM)
- MIC (H. influenzae; ATCC33533, H. influenzae ATCC 33533, Exp. #1, Table 4): 64 µg/mL (≈ 114 µM)
- MIC (H. influenzae; ATCC33533, H. influenzae ATCC 33533, Exp. #2, Table 4): ≥ 64 µg/mL
- MIC (K. pneumoniae; ATCC51503, K. pneumoniae ATCC 51503, Exp. #1, Table 3): 8 µg/mL (≈ 14.2 µM)
- MIC (K. pneumoniae; ATCC51503, K. pneumoniae ATCC 51503, Exp. #1, Table 4): 4 µg/mL (≈ 7.12 µM)
- MIC (K. pneumoniae; ATCC51503, K. pneumoniae ATCC 51503, Exp. #2, Table 3): 8 µg/mL (≈ 14.2 µM)
- MIC (K. pneumoniae; ATCC51503, K. pneumoniae ATCC 51503, Exp. #2, Table 4): 8 µg/mL (≈ 14.2 µM)
- MIC (K. pneumoniae; ATCC51504, K. pneumoniae ATCC 51504, Exp. #1, Table 3): 1 µg/mL (≈ 1.78 µM)
- MIC (K. pneumoniae; ATCC51504, K. pneumoniae ATCC 51504, Exp. #2, Table 3): 2 µg/mL (≈ 3.56 µM)
- MIC (K. pneumoniae; ATCC700721, K. pneumoniae ATCC 700721, Exp. #1, Table 3): 2 µg/mL (≈ 3.56 µM)
- MIC (K. pneumoniae; ATCC700721, K. pneumoniae ATCC 700721, Exp. #1, Table 4): 4 µg/mL (≈ 7.12 µM)
- MIC (K. pneumoniae; ATCC700721, K. pneumoniae ATCC 700721, Exp. #2, Table 3): 2 µg/mL (≈ 3.56 µM)
- MIC (K. pneumoniae; ATCC700721, K. pneumoniae ATCC 700721, Exp. #2, Table 4): 8 µg/mL (≈ 14.2 µM)
- MIC (M. catarrhalis; M. catarrhalis ATCC 43627, Exp. #2, Table 3): ≦0.125 μg/ml
- MIC (M. catarrhalis; M. catarrhalis ATCC 43628, Exp. #2, Table 3): ≦0.125 μg/ml
- MIC (M. catarrhalis; M. catarrhalis ATCC 49265, Exp. #2, Table 3): ≦0.125 μg/ml
- MIC (M. catarrhalis; M. catarrhalis ATCC 51584, Exp. #2, Table 3): ≦0.125 μg/ml
- MIC (M. catarrhalis; Moraxella catarrhalis, ATCC43627, M. catarrhalis ATCC 43627, Exp. #1, Table 3, read-out: MIC): ≤ 0.125 µg/mL
- MIC (M. catarrhalis; Moraxella catarrhalis, ATCC43628, M. catarrhalis ATCC 43628, Exp. #1, Table 3, read-out: MIC): ≤ 0.125 µg/mL
- MIC (M. catarrhalis; Moraxella catarrhalis, ATCC49265, M. catarrhalis ATCC 49265, Exp. #1, Table 3, read-out: MIC): ≤ 0.125 µg/mL
- MIC (M. catarrhalis; Moraxella catarrhalis, ATCC51584, M. catarrhalis ATCC 51584, Exp. #1, Table 3, read-out: MIC): ≤ 0.125 µg/mL
- MIC (P. aeruginosa; ATCC21726, P. aeruginosa ATCC 21726, Exp. #1, Table 4): > 64 µg/mL
- MIC (P. aeruginosa; ATCC21726, P. aeruginosa ATCC 21726, Exp. #2, Table 4): ≥ 64 µg/mL
- MIC (P. aeruginosa; ATCC29872, P. aeruginosa ATCC 29872, Exp. #1, Table 4): > 64 µg/mL
- MIC (P. aeruginosa; ATCC29872, P. aeruginosa ATCC 29872, Exp. #2, Table 4): ≥ 64 µg/mL
- MIC (S. epidermidis; ATCC27626, S. epidermidis ATCC 27626, Exp. #1, Table 3): ≤ 0.125 µg/mL
- MIC (S. epidermidis; ATCC27626, S. epidermidis ATCC 27626, Exp. #2, Table 3): ≤ 0.125 µg/mL
- MIC (S. epidermidis; ATCC700565, S. epidermidis ATCC 700565, Exp. #1, Table 3): 2 µg/mL (≈ 3.56 µM)
- MIC (S. epidermidis; ATCC700565, S. epidermidis ATCC 700565, Exp. #2, Table 3): 2 µg/mL (≈ 3.56 µM)
- MIC (S. epidermidis; ATCC700566, S. epidermidis ATCC 700566, Exp. #1, Table 3): ≤ 0.125 µg/mL
- MIC (S. epidermidis; ATCC700566, S. epidermidis ATCC 700566, Exp. #2, Table 3): ≤ 0.125 µg/mL
- MIC (S. epidermidis; ATCC700578, S. epidermidis ATCC 700578, Exp. #1, Table 3): 0.5 µg/mL (≈ 0.89 µM)
- MIC (S. epidermidis; ATCC700578, S. epidermidis ATCC 700578, Exp. #2, Table 3): 0.25 µg/mL (≈ 0.445 µM)
- MIC (S. epidermidis; ATCC700583, S. epidermidis ATCC 700583, Exp. #1, Table 3): ≤ 0.125 µg/mL
- MIC (S. epidermidis; ATCC700583, S. epidermidis ATCC 700583, Exp. #2, Table 3): ≤ 0.125 µg/mL
- MIC (E. coli; E. coli, Exp. #2, Table 4): 16 µg/mL (≈ 28.5 µM)
- MIC (E. coli; E. coli/Tem-1 (expressing TEM-1 beta-lactamase), Exp. #1, Table 4): 16 µg/mL (≈ 28.5 µM)
- MIC (E. coli; E. coli/Tem-1 (expressing TEM-1 beta-lactamase), Exp. #2, Table 4): 16 µg/mL (≈ 28.5 µM)
- MIC (E. coli; Escherichia coli, E. coli, Exp. #1, Table 4, read-out: MIC): 16 µg/mL (≈ 28.5 µM)
- IC50 at 16 h [1]: ~30 µM
